In brackets after ≈: the same amount, converted by molar mass. Like-named read-outs stand apart in the source and are kept apart here.
What was measured:
Test in all cases: MIC (Minimum Inhibitory Concentration)
Format in all cases: cell-based
[1] = tested on: Streptococcus haemolyticus; conditions: read-out: MIC values
Description: (§1) In addition they may be used for combatting plant diseases, in particular as fungicides. A list of MIC (Minimum Inhibitory Concentration) values for a number of microorganisms is listed herebelow. The figures in the column headings refer to the compounds prepared according to the experimental examples in comparison with the spectrum of 1-[2-(2,4-dichlorophenyl)-2-{(2,4-dichlorophenyl)-methoxy} -ethyl7-1H-imidazole (better known under the name of miconazole, c.f. Merck Index 9th Ed. page 6047) or natamycin (pimaricin, c.f. Merck Index 9th Ed. page 7233).

[2] = tested on: Trichophyton schoenleinii; conditions: Trichophyton schoenleinii 435-63; read-out: MIC values
Description: as §1

Trichophyton tonsurans = Trichophyton tonsurans 561-50; read-out: MIC values
Description: as §1

Trichophyton rubrum = tested on: Trichophyton rubrum
Description: as §1

Pasteurella multocida = conditions: read-out: MIC values
Description: as §1

Trichophyton equinum = tested on: Trichophyton equinum
Description: as §1

Candida albicans = tested on: Candida albicans
Description: as §1

Trichophyton violoceum = Trichophyton violoceum 442-62; read-out: MIC values
Description: as §1

Trichophyton quickeaneum = Trichophyton quickeaneum A 2040; read-out: MIC values
Description: as §1

[3] = tested on: Trichophyton mentagrophytus
Description: as §1

[4] = Streptococcus haemolyticus A 1088
[5] = Trichophyton rubrum 218-65, read-out: MIC values
[6] = Trichophyton rubrum 494-62, read-out: MIC values
[7] = Trichophyton rubrum A 810, read-out: MIC values
[8] = Trichophyton equinum 182-76, read-out: MIC values
[9] = Trichophyton equinum 856-71, read-out: MIC values
[10] = Candida albicans A 7, read-out: MIC values
[11] = Candida albicans A 3140, read-out: MIC values
[12] = Candida albicans A 3141, read-out: MIC values
[13] = Candida albicans A 3142, read-out: MIC values
[14] = Candida albicans A 3143, read-out: MIC values
[15] = Candida albicans A 3144, read-out: MIC values
[16] = Candida albicans A 3145, read-out: MIC values
[17] = Candida albicans A 3165, read-out: MIC values
[18] = Candida albicans A 3166, read-out: MIC values
[19] = Candida albicans A 3167, read-out: MIC values
[20] = Candida albicans A 3168, read-out: MIC values
[21] = Candida albicans A 3169, read-out: MIC values
[22] = Candida albicans A 3171, read-out: MIC values
[23] = Candida albicans A 3184, read-out: MIC values
[24] = Candida albicans A 3190, read-out: MIC values
[25] = Candida albicans A 3191, read-out: MIC values
[26] = Candida albicans A 3192, read-out: MIC values
[27] = Candida albicans A 3194, read-out: MIC values
[28] = Candida albicans A 3196, read-out: MIC values
[29] = Trichophyton mentagrophytus 367-68, read-out: MIC values
[30] = Trichophyton mentagrophytus 421-67, read-out: MIC values
[31] = Trichophyton mentagrophytus A 3252, read-out: MIC values
[32] = Trichophyton mentagrophytus R 177, read-out: MIC values
[33] = Trichophyton mentagrophytus R 178, read-out: MIC values
[34] = Trichophyton mentagrophytus RRL 305, read-out: MIC values

**Q.** What does the source list for [C-]#[N+]C(=C(C)c1ccccc1)S(=O)(=O)c1ccc(C)cc1 [Example 12, 2-phenyl-1-isocyano-1-(4-toluenesulphonyl)-1-propene]?
**A.** MIC [1, 4]: 50 µg/mL (≈ 168 µM); MIC [2]: 1.5 µg/mL (≈ 5.04 µM); MIC (Trichophyton tonsurans): 0.1 µg/mL (≈ 0.336 µM); MIC (Trichophyton rubrum; [5]): 3 µg/mL (≈ 10.1 µM); MIC (Trichophyton rubrum; [6]): 6 µg/mL (≈ 20.2 µM); MIC (Trichophyton rubrum; [7]): 3 µg/mL (≈ 10.1 µM); MIC (Pasteurella multocida; Pasteurella multocida A 723): 3 µg/mL (≈ 10.1 µM); MIC (Trichophyton equinum; [8]): 12.5 µg/mL (≈ 42 µM); MIC (Trichophyton equinum; [9]): 6 µg/mL (≈ 20.2 µM); MIC (Candida albicans; [10]): 3 µg/mL (≈ 10.1 µM); MIC (Candida albicans; [11]): 6 µg/mL (≈ 20.2 µM); MIC (Candida albicans; [12]): 6 µg/mL (≈ 20.2 µM); MIC (Candida albicans; [13]): 6 µg/mL (≈ 20.2 µM); MIC (Candida albicans; [14]): 6 µg/mL (≈ 20.2 µM); MIC (Candida albicans; [15]): 3 µg/mL (≈ 10.1 µM); MIC (Candida albicans; [16]): 3 µg/mL (≈ 10.1 µM); MIC (Candida albicans; [17]): 3 µg/mL (≈ 10.1 µM); MIC (Candida albicans; [18]): 3 µg/mL (≈ 10.1 µM); MIC (Candida albicans; [19]): 3 µg/mL (≈ 10.1 µM); MIC (Candida albicans; [20]): 6 µg/mL (≈ 20.2 µM); MIC (Candida albicans; [21]): 6 µg/mL (≈ 20.2 µM); MIC (Candida albicans; [22]): 6 µg/mL (≈ 20.2 µM); MIC (Candida albicans; [23]): 6 µg/mL (≈ 20.2 µM); MIC (Candida albicans; [24]): 6 µg/mL (≈ 20.2 µM); MIC (Candida albicans; [25]): 6 µg/mL (≈ 20.2 µM); MIC (Candida albicans; [26]): 3 µg/mL (≈ 10.1 µM); MIC (Candida albicans; [27]): 3 µg/mL (≈ 10.1 µM); MIC (Candida albicans; [28]): 6 µg/mL (≈ 20.2 µM); MIC (Trichophyton violoceum): 3 µg/mL (≈ 10.1 µM); MIC (Trichophyton quickeaneum): 6 µg/mL (≈ 20.2 µM); MIC [3, 29]: 12.5 µg/mL (≈ 42 µM); MIC [3, 30]: 6 µg/mL (≈ 20.2 µM); MIC [3, 31]: 6 µg/mL (≈ 20.2 µM); MIC [3, 32]: 3 µg/mL (≈ 10.1 µM); MIC [3, 33]: 6 µg/mL (≈ 20.2 µM); MIC [3, 34]: 25 µg/mL (≈ 84.1 µM)

**Q.** Which results are given for [C-]#[N+]C(C1=CCSCC1)S(=O)(=O)c1ccc(C)cc1 (stereo not drawn) [Example 16b, a-(3,4-dehydrothian-4-yl)-a-(4-toluenesulphonyl)-methylisocyanide]?
**A.** MIC [1, 4]: 50 µg/mL (≈ 170 µM); MIC [2]: 1.5 µg/mL (≈ 5.11 µM); MIC (Trichophyton tonsurans): 0.8 µg/mL (≈ 2.73 µM); MIC (Trichophyton rubrum; [5]): 1.5 µg/mL (≈ 5.11 µM); MIC (Trichophyton rubrum; [6]): 12.5 µg/mL (≈ 42.6 µM); MIC (Trichophyton rubrum; [7]): 1.5 µg/mL (≈ 5.11 µM); MIC (Pasteurella multocida; Pasteurella multocida A 723): 3 µg/mL (≈ 10.2 µM); MIC (Trichophyton equinum; [8]): 6 µg/mL (≈ 20.4 µM); MIC (Trichophyton equinum; [9]): 12.5 µg/mL (≈ 42.6 µM); MIC (Candida albicans; [10]): 3 µg/mL (≈ 10.2 µM); MIC (Candida albicans; [11]): 3 µg/mL (≈ 10.2 µM); MIC (Candida albicans; [12]): 3 µg/mL (≈ 10.2 µM); MIC (Candida albicans; [13]): 3 µg/mL (≈ 10.2 µM); MIC (Candida albicans; [14]): 3 µg/mL (≈ 10.2 µM); MIC (Candida albicans; [15]): 6 µg/mL (≈ 20.4 µM); MIC (Candida albicans; [16]): 6 µg/mL (≈ 20.4 µM); MIC (Candida albicans; [17]): 3 µg/mL (≈ 10.2 µM); MIC (Candida albicans; [18]): 3 µg/mL (≈ 10.2 µM); MIC (Candida albicans; [19]): 3 µg/mL (≈ 10.2 µM); MIC (Candida albicans; [20]): 3 µg/mL (≈ 10.2 µM); MIC (Candida albicans; [21]): 3 µg/mL (≈ 10.2 µM); MIC (Candida albicans; [22]): 3 µg/mL (≈ 10.2 µM); MIC (Candida albicans; [23]): 3 µg/mL (≈ 10.2 µM); MIC (Candida albicans; [24]): 3 µg/mL (≈ 10.2 µM); MIC (Candida albicans; [25]): 6 µg/mL (≈ 20.4 µM); MIC (Candida albicans; [26]): 3 µg/mL (≈ 10.2 µM); MIC (Candida albicans; [27]): 3 µg/mL (≈ 10.2 µM); MIC (Candida albicans; [28]): 3 µg/mL (≈ 10.2 µM); MIC (Trichophyton violoceum): 3 µg/mL (≈ 10.2 µM); MIC (Trichophyton quickeaneum): 6 µg/mL (≈ 20.4 µM); MIC [3, 29]: 6 µg/mL (≈ 20.4 µM); MIC [3, 30]: 6 µg/mL (≈ 20.4 µM); MIC [3, 31]: 12.5 µg/mL (≈ 42.6 µM); MIC [3, 32]: 6 µg/mL (≈ 20.4 µM); MIC [3, 33]: 12.5 µg/mL (≈ 42.6 µM); MIC [3, 34]: 12.5 µg/mL (≈ 42.6 µM)

**Q.** What does the source list for [C-]#[N+]C(=C1CCCCCC1)S(=O)(=O)c1ccc(C)cc1 [Example 18a, a-cycloheptylidene-a-(4-toluenesulphonyl)-methylisocyanide]?
**A.** MIC ([1]; Streptococcus): 10 µg/mL (≈ 34.6 µM); MIC (Pasteurella multocida; Pasteurella multocida): 20 µg/mL (≈ 69.1 µM); MIC (Candida albicans; read-out: MIC values, Candida albicans A 7): 1.5 µg/mL (≈ 5.18 µM); MIC (Candida albicans; read-out: MIC values, Candida albicans A 3140): 1.5 µg/mL (≈ 5.18 µM); MIC (Candida albicans; read-out: MIC values, Candida albicans A 3141): 3 µg/mL (≈ 10.4 µM); MIC (Candida albicans; read-out: MIC values, Candida albicans A 3142): 1.5 µg/mL (≈ 5.18 µM); MIC (Candida albicans; read-out: MIC values, Candida albicans A 3143): 1.5 µg/mL (≈ 5.18 µM); MIC (Candida albicans; read-out: MIC values, Candida albicans A 3144): 3 µg/mL (≈ 10.4 µM); MIC (Candida albicans; read-out: MIC values, Candida albicans A 3145): 3 µg/mL (≈ 10.4 µM); MIC (Candida albicans; read-out: MIC values, Candida albicans A 3165): 1.5 µg/mL (≈ 5.18 µM); MIC (Candida albicans; read-out: MIC values, Candida albicans A 3166): 3 µg/mL (≈ 10.4 µM); MIC (Candida albicans; read-out: MIC values, Candida albicans A 3167): 0.75 µg/mL (≈ 2.59 µM); MIC (Candida albicans; read-out: MIC values, Candida albicans A 3168): 0.75 µg/mL (≈ 2.59 µM); MIC (Candida albicans; read-out: MIC values, Candida albicans A 3169): 3 µg/mL (≈ 10.4 µM); MIC (Candida albicans; read-out: MIC values, Candida albicans A 3171): 1.5 µg/mL (≈ 5.18 µM); MIC (Candida albicans; read-out: MIC values, Candida albicans A 3184): 3 µg/mL (≈ 10.4 µM); MIC (Candida albicans; read-out: MIC values, Candida albicans A 3190): 3 µg/mL (≈ 10.4 µM); MIC (Candida albicans; read-out: MIC values, Candida albicans A 3191): 3 µg/mL (≈ 10.4 µM); MIC (Candida albicans; read-out: MIC values, Candida albicans A 3192): 1.5 µg/mL (≈ 5.18 µM); MIC (Candida albicans; read-out: MIC values, Candida albicans A 3194): 1.5 µg/mL (≈ 5.18 µM); MIC (Candida albicans; read-out: MIC values, Candida albicans A 3196): 3 µg/mL (≈ 10.4 µM)

From patent publication EP0007672A1, “Isocyanoalkenes, process and useful intermediates for their preparation, pharmaceutical and fungicidal preparations containing those isocyanoalkenes and the use of the fungicidal preparations in agriculture” (GIST-BROCADES N.V., priority 1978, dated 1980)
